Data from publication PMC10272112 (Nature Communications, 2023).
Where two headings read alike, the source gives them in different places.

Experiments:
HDAC10 = biological target: T1, HDAC10 (Homo sapiens, UniProt Q969S8); experiment: Chemoproteomic competition pulldown assay; type: binding
T1 construct: host or cells: HeLa mono-clones, stably expressing
T1 sequence (Q969S8 1-669): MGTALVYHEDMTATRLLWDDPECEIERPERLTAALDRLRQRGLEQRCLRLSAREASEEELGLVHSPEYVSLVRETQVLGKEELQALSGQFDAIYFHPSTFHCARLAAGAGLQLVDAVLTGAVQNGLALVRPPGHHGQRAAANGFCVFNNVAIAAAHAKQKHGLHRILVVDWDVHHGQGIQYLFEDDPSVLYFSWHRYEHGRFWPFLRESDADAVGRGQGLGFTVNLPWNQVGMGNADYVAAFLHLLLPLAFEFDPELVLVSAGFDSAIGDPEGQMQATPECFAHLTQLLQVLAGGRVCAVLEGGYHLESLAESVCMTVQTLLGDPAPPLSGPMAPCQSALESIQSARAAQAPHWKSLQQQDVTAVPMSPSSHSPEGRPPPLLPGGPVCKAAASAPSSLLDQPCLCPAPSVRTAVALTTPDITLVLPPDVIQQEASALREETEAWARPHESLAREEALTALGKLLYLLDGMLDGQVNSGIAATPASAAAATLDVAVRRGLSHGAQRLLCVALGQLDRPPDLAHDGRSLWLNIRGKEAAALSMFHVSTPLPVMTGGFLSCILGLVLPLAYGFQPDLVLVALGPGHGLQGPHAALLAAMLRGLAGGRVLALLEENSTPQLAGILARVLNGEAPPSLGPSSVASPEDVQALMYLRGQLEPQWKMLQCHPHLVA
Experimental: To identify proteins directly bound by lipoic acid, we employed a chemoproteomic competition assay. Briefly, (R/S)-LA was immobilized on sepharose beads via an amidation reaction to form an affinity matrix (abbreviated as iL; Fig. 1a). This affinity matrix can be incubated with cell lysate to pull down potential LA or LM target proteins and identify these targets via bottom-up proteomics. In a competition assay, free LA or LM were incubated with lysate at different concentrations before pulling down and quantifying target proteins. […] (Fig. 1b, see “Methods” for details). […] The lysate buffer used in this assay contains 1 mM DTT to mimic the intracellular reductive milieu and to reduce lipoic acid and LM. […] Additional competition assays performed in lung adenocarcinoma cell A549 lysate also identified HDAC1, HDAC2, and HDAC6 as targets (Supplementary Fig. 1b). Amongst the three cell lines tested, HDACs were the only confidently identified targets across the 1500–3000 proteins quantified in these assays. […] We validated the results by analogous pulldown competition assays using two other affinity matrices prepared via the immobilization of either the HDAC inhibitor Quisinostat (iQ) and an analog of the class IIa HDAC inhibitor Bürli’s 31[14] (iC)[12]. We have previously shown that these affinity matrices specifically bind to the active sites of HDACs and have used them for HDACi selectivity profiling. Indeed, binding of (R/S)-LA and (R/S)-LM to HDAC1, HDAC2, HDAC3, HDAC6, and, to a lesser extent, HDAC8 was confirmed in these assays (Supplementary Fig. 1c, d). No binding to class IIa HDACs or the recently discovered common HDAC inhibitor off-target MBLAC2 was observed (Supplementary Fig. 1e)[12]. […] This observation might reflect electrostatic repulsion between the HDAC10 active site gate-keeper glutamic acid residues[15],[16] and the terminal carboxylic acid of LA.
To assess the degree of protein depletion from lysates by the affinity matrix, a second pulldown (PDPD) with fresh beads was performed using the unbound protein fraction from the vehicle control flow through. The beads were washed (1 × 1 mL of lysis buffer without inhibitors and only 0.4% Igepal, 2 × 2 mL of lysis buffer without inhibitors and only 0.2% Igepal), and captured proteins were denatured with 8 M urea buffer, alkylated with 55 mM chloroacetamide and digested with Trypsin according to standard procedures. The resulting peptides were desalted on a C18 filter plate (Sep-Pak® tC18 µElution Plate, Waters), vacuum dried, and stored at −20 °C until LC–MSMS measurement.
For the competition assays, relative binding was calculated based on the protein intensity ratio to the DMSO control for every single inhibitor concentration. EC50 values were derived from a four-parameter log-logistic regression with variable slope (constrain: bottom > 0). The obtained EC50 values were multiplied with a protein-dependent correction factor (cf), resulting in the apparent Kd value (Kd^app). The correction factor is determined by calculating the ratio of the protein intensity of two consecutive pulldowns of the vehicle control sample[13]. Targets of the inhibitors were annotated manually according to published procedures[12],[46],[47]. […] Additionally, the number of unique peptides and MSMS counts per condition were taken into account. Positive target binding across several independent experiments performed with different cell lysates further substantiated our confidence for a true positive drug-target binding event.

α-Tubulin AcK40 = experiment: α-tubulin acetylation detection by western blot, CBP-HA transfected HEK293T; type: cell-based; settings: for concentration showing substantial increase of α-Tubulin AcK40 acetylation: 7 h drug incubation; for α-Tubulin AcK40 acetylation level relative to control: HEK293T
Experimental: 0.2 × 10^6 HEK293T (ATCC: CRL-3216) cells were transfected with pcDNA 3.1-HA CBP plasmids (1 μg/well for the 6-well plate) by FuGENE. After 2 days, cells were treated with ACY-738, lipoic acid, and lipoamide for 7 h, then were washed by ice-cold PBS and lysed in Triton lysis buffer (50 mM Tris, pH 8.0, 150 mM NaCl, 1 mM EDTA, 0.1% TritonX-100 and complete EDTA-free protease inhibitors (Roche)) for analysis. To detect protein acetylation, 0.2 μM Trichostatin A and 5 mM nicotinamide were added to PBS for washing, and 10 μM trichostatin A, 10 mM nicotinamide, and 50 mM sodium butyrate were added to Triton lysis buffer.

[1] = iQ, SW620, read-out: pKdapp (converted)
[2] = iQ, SW620 lysate, log10 M -3.52288
[3] = iQ, SW620 lysate, log10 M -4.52288
[4] = iQ, SW620 lysate, log10 M -5.52288
[5] = iQ, SW620 lysate, log10 M -6.52288

| Structure (SMILES) | HDAC10 binding in competition assays (HDAC10) | Kd (HDAC10; [1]) [µM] | relative binding vs DMSO (HDAC10; [2]) | relative binding vs DMSO (HDAC10; iQ, SW620 lysate, log10 M -4) | relative binding vs DMSO (HDAC10; [3]) | relative binding vs DMSO (HDAC10; iQ, SW620 lysate, log10 M -5) | relative binding vs DMSO (HDAC10; [4]) | relative binding vs DMSO (HDAC10; iQ, SW620 lysate, log10 M -6) | relative binding vs DMSO (HDAC10; [5]) | relative binding vs DMSO (HDAC10; iQ, SW620 lysate, log10 M -7) | concentration showing substantial increase of α-Tubulin AcK40 acetylation (α-Tubulin AcK40) [µM] | α-Tubulin AcK40 acetylation level relative to control (α-Tubulin AcK40; 1 mM) [fold] | α-Tubulin AcK40 acetylation level relative to control (α-Tubulin AcK40; .5 (mM)) [fold] | further results |
| --- | --- | --- | --- | --- | --- | --- | --- | --- | --- | --- | --- | --- | --- | --- |
| O=C(O)CCCCC1CCSS1 (racemic) [(R/S)-LA, (R/S)-lipoic acid] | does not bind HDAC10 | > 316 | 0.8351 | 1.0789 | 0.7975 | 1.279 | 1.261 | 1.294 | 1.332 | 1.395 | 50 | 3.4 | 2 | – |
| NC(=O)CCCCC1CCSS1 (racemic) [(R/S)-LM, (R/S)-lipoamide] | binds HDAC10 with an even higher affinity than other HDACs | 3.16 | 0.03275 | 0.4253 | 0.3482 | 0.4143 | 0.681 | 0.6621 | 0.6582 | 0.9909 | 50 | 4.0 | 2.5 | relative binding vs DMSO (HDAC10; iL, MV4-11 lysate, log10 M -3.52288): 0.04424; relative binding vs DMSO (HDAC10; iL, MV4-11 lysate, log10 M -4): 0.1432; relative binding vs DMSO (HDAC10; iL, MV4-11 lysate, log10 M -4.52288): 0.2397; relative binding vs DMSO (HDAC10; iL, MV4-11 lysate, log10 M -5): 0.4705; relative binding vs DMSO (HDAC10; iL, MV4-11 lysate, log10 M -5.52288): 0.6761; relative binding vs DMSO (HDAC10; iL, MV4-11 lysate, log10 M -6): 0.5589; relative binding vs DMSO (HDAC10; iL, MV4-11 lysate, log10 M -6.52288): 0.7984; relative binding vs DMSO (HDAC10; iL, MV4-11 lysate, log10 M -7): 0.7331; Kd (HDAC10; iL, MV4-11 lysate, read-out: Kd app): 5 µM; Kd (HDAC10; iL, MV411, read-out: pKdapp (converted)): 3.16 µM; α-Tubulin AcK40 acetylation level relative to control (α-Tubulin AcK40; 1 mM, listed as LM): 4 fold |
